Data reported in patent publication US7696167B2, “Cyclic peptide compound” (Astellas Pharma Inc., priority 2004, dated 2010).

Tested on: HCV replicon
Type: cell-based, hepatitis C virus
Settings: HCV replicon cells, two days with compound, replicon RNA corrected by GAPDH; read-out: HCV replicon inhibitory activity: EC50
Experimental: The inhibitory activity against the replication of HCV replicon was evaluated by determining the amount of replicon RNA, purified from cell lysate with a conventional column method, using real-time RT-PCR based on Taq-Man chemistry. The assay was carried out with the modified method reported by Lohmann et al., Science 285: 100 (1999) and Takeuchi et al., Gastroenterology 116: 636-642 (1999). The details thereof are described in the following.
7.5×10^3 HCV replicon cells in 0.1 ml of D-MEM medium containing 5% fetal bovine serum and 300 μg/ml of G418 (Kishine et al., B.B.R.C. 293: 993-999 (2002)) were seeded in each well of a 96-well microtiter plate (Corning Inc.). After the plate was incubated at 37° C. for 16 hours in 5% CO2, the medium was replaced with the above-mentioned medium in which the test compound was dissolved. […]
RT-PCR was carried out by using the ABI PRISM 7900HT sequence detection system (Applied Biosystems Inc.), and the gene copy number of the HCV replicon RNA in each cell was determined. […]
As a further control for RNA recovery in each assay well, the copy number of cellular Glyceraldehyde-3-phosphate dehydrogenase (GAPDH) mRNA was quantified by real-time RT-PCR with specific primer set and probe (all of these were produced by Takara Shuzo Co., Ltd.) as described above (part3) […]

C/C=C/C[C@@H](C)[C@@H](O)[C@H]1C(=O)N[C@@H]([C@@H](C)O)C(=O)N(C)CC(=O)N(C)[C@@H](CC(C)C)C(=O)N[C@@H](CC(C)C)C(=O)N(C)[C@@H](CC(C)C)C(=O)N[C@@H](C)C(=O)N[C@H](C)C(=O)N(C)[C@@H](C[C@H](C)CO)C(=O)N[C@@H](CC(C)C)C(=O)N(C)[C@@H](C(C)C)C(=O)N1C [(2)]
EC50: < 3000 nM
